Columns and labels:
[1] = test system: lipid vesicles enriched with PUFAs and cholesterol; assay: Glucose-induced membrane lipid peroxidation (LOOH) in DLPC/cholesterol multilamellar vesicles (Example 4); type: biochemical; conditions: each at 1.0 μM; glucose 200 mg/dL; 96 hours
Protocol: Vitamin E (α-tocopherol) was also purchased from Sigma-Aldrich and prepared in ethanol at 1.0 mM (ε32 3.06×10^4 M^−1 cm^−1 at 294 nm) just prior to experimental use. […] All test compounds were further diluted in ethanol or aqueous buffer as needed. Glucose was prepared in saline buffer (0.5 mM HEPES, 154 mM NaCl, pH 7.3) at 11.0 mM (200 mg/dL). CHOD-iodide color reagent (stock) was prepared, with slight modification, as described by from El-Saadani et al. (J. […] Prior to experimental use, the CHOD reagent was activated by adding 24 μM ethylenediaminetetraacetic acid (EDTA), 20 μM butylated hydroxytoluene (BHT), and 0.2% Triton X-100. Multilamellar vesicles (MLVs) were prepared as binary mixtures of DLPC (1.0 or 2.5 mg total phospholipid per sample) and cholesterol at a fixed cholesterol-to-phospholipid (C/P) mole ratio of 0.6:1. Component lipids (in chloroform) were transferred to 13×100 mm borosilicate culture tubes and combined with vehicle (ethanol) or an equal volume of fatty acid, vitamin E, or ATM stock solutions, each adjusted to achieve desired treatment concentrations. Samples were shell-dried under nitrogen gas and placed under vacuum for 1 h to remove residual solvent. […] Lipid suspensions were then vortexed for 3 min at ambient temperature to form MLVs. All MLV samples were subjected to time-dependent autoxidation by incubating at 37° C. in an uncovered, shaking water bath. This method allows lipid peroxidation to occur gradually without requiring the use of exogenous initiators. Small aliquots (5-100 μL) of each sample were removed, immediately following MLV preparation (0 hour) and after exposing samples to oxidative conditions for 72 or 96 hour, and combined with 1.0 mL of activated CHOD-iodide color reagent. Aliquot volume was reduced with each successive time point to ensure that spectrophotometric readings were within the optimal adsorption range. Test samples were covered and incubated in darkness at room temperature for at least 4 hr. Sample absorbances were then measured against a CHOD blank at 365 nm using a Beckman DU-640 spectrophotometer. The CHOD colorimetric assay is based on the oxidation of iodide (I^−) by lipid hydroperoxide (LOOH) to form triiodide (I3^−), the quantity of which is directly proportional to the amount of LOOH present in the lipid sample. The molar absorptivity (c) of I3^− is 2.46×10^4 M^−1 cm^−1 at 365 nm. […] The concentration of glucose selected was consistent with previous experimental studies of hyperglycemia under controlled laboratory conditions or observed in well-defined animal models of Type II diabetes following a glucose challenge. […] Values in FIG. 1 are mean±S.D. (N=6). […]

[2] = X-ray diffraction of cholesterol-enriched POPC membranes without oxidative conditions (Example 8); conditions: 5 mol %; 50 mol % cholesterol; 15° C., 20° C., 30° C. (FIG. 18)
Protocol: Values are mean±S.D. (N=3).
FIGS. 18A-18C show representative x-ray diffraction patterns collected from cholesterol-enriched model membranes treated with vehicle (control), eicosapentaenoic acid (EPA), or docosahexaenoic acid (DHA) and examined at 15° C., 20° C., and 30° C. Membranes were reconstituted from POPC and cholesterol at 50 mol % cholesterol and treated with each of the various agents at 5 mol % (to match treatments used in corresponding lipid dynamics experiments). Each sample was maintained at 74% relative humidity by exposing the samples to a saturated solution of L-(+) tartaric acid. […] DHA, but not EPA or vehicle, induced the formation of cholesterol domains, which are indicated by a distinct set of diffraction peaks (shaded peaks) having a characteristic d-space value of 34 Å and shown to be stable over a broad range of temperatures.
(§1) Multilamellar vesicles (MLVs) were prepared as binary mixtures of POPC and cholesterol at 50 mol %. MLVs with DLPC and cholesterol at cholesterol-to-phospholipid (C/P) mole ratios of 0.1:1 to 1.1:1 were also prepared in a similar manner. Component lipids (in chloroform) were transferred to borosilicate culture tubes and combined with vehicle (ethanol) or an equal volume of EPA, DHA, fenofibrate, niacin or gemfibrozil stock solution(s) and adjusted to achieve a drug-to-phospholipid (D/P) mole ratio of 1:30. Membranes reconstituted from POPC and cholesterol (at 50 mol % cholesterol) were treated with each of the various agents at 5 mol %. Samples were then shell-dried under nitrogen gas and placed under vacuum for 3 hours to remove residual solvent.
Membrane samples were oriented for x-ray diffraction analysis as described in Mason, et al., J. Biol. Chem., vol. 281, pages 9337-45 (2006). Briefly, 100 μL aliquots of each MLV preparation (containing 250 μg of phospholipid) were transferred to Lucite sedimentation cells fitted with a removable aluminum foil substrate designed to collect MLVs into a single membrane pellet upon centrifugation. […]

[3] = Fluorescence anisotropy, DPH apparent rotational correlation time (Example 8); conditions: POPC, 0 or 50 mol % cholesterol; increasing omega-3 fatty acid concentrations (FIGS. 16A-16B)
From the text: FIGS. 16A-16B show the dose-dependent effects of EPA and DHA on the ARCT measured for DPH in POPC membranes prepared at either 0 or 50 mol % cholesterol. †p=0.0331 versus cognate DHA treatment (5 mol % omega-3 fatty acids (O3FA), no cholesterol); ^§p=0.0016 versus cognate DHA treatment (5 mol % O3FA, 50 mol % cholesterol); ^‡p=0.0032 versus cognate DHA treatment (10 mol % O3FA, 50 mol % cholesterol) (unpaired, two-tailed Student's t-test). Values are mean±S.D. (N=3).
Fluorescence anisotropy experiments were conducted using large unilamellar vesicles (LUVs) of 100 nm diameter of either POPC (or POPC/cholesterol) containing increasing concentrations of EPA or DHA and 1 mol % DPH fluorescent. Briefly, 640 nmol of total lipid (phospholipid and sterol) and 6.4 nmol of fluorescent probe was mixed well and dried under a stream of nitrogen while being warmed gently at 35° C. […]
In order to ensure that the anisotropy values measured for DPH are not influenced by lifetime-induced artifacts, the apparent (average) rotational correlation times (ARCT) were calculated using Perrin's equation: […]
where r0 is the limiting anisotropy of DPH, r is the steady state anisotropy, and is the mean fluorescence lifetime.

[4] = X-ray diffraction of glucose-treated DLPC/cholesterol membranes under oxidative conditions (Example 8); conditions: for effect on d-space values: 10.0 μM, 0.6 C/P, glucose-induced lipid peroxidation 72 hours (FIG. 14); for cholesterol domain peaks compared to samples treated with EPA: after 96 hours, C/P 0.6:1, drug-to-phospholipid 1:30
Protocol: Values are reported as mean±S.D. (N=3).
[…] Membranes were reconstituted from DLPC and cholesterol at a C/P mole ratio of 0.6:1 and treated with the various agents to achieve a total drug-to-phospholipid mole ratio of 1:30.
as §1
After drying, each sample was resuspended in glucose-free or glucose-containing saline buffer to yield a final phospholipid concentration of 2.5 mg/mL. Lipid suspensions were then vortexed for 3 minutes at ambient temperature to form MLVs.
Membrane samples were oriented for x-ray diffraction analysis as described in Mason, et al., J. Biol. Chem., vol. 281, pages 9337-45 (2006). Briefly, 100 μL aliquots of each MLV preparation (containing 250 μg of phospholipid) were transferred to Lucite sedimentation cells fitted with a removable aluminum foil substrate designed to collect MLVs into a single membrane pellet upon centrifugation. Samples were then loaded into a Sorvall AH-629 swinging bucket ultracentrifuge rotor (DuPont Corp., Wilmington, Del.) and centrifuged at 35,000 g, 5° C., for 1.5 hours.
Following membrane orientation, sample supernatants were aspirated and aluminum foil substrates mounted onto curved glass slides. The membrane samples were then placed in hermetically sealed containers in which temperature and relative humidity were controlled during x-ray diffraction analysis. Data reported in this study were collected at 20° C. and 74% relative humidity.
This technique allows for precise measurement of the unit cell periodicity, or d-space, of the membrane lipid bilayer, which is the distance from the center of one lipid bilayer to the next, including surface hydration.
The presence of cholesterol domains in a given membrane sample results in the production of distinct Bragg (diffraction) peaks that have singular periodicity values of 34 Å and 17 Å. These peaks are typically referred to as first- and second-order cholesterol domain peaks.

SMILES | antioxidant effect (LOOH formation), separate treatments [1] | membrane cholesterol domain formation [2] | DPH apparent rotational correlation time / membrane fluidity [3] | effect on d-space values [4] | cholesterol domain peaks compared to samples treated with EPA [4]
CC(C)c1c(C(=O)Nc2ccccc2O)c(-c2ccccc2)c(-c2ccc(F)cc2)n1CC[C@@H](O)C[C@@H](O)CC(=O)O [ATM, Atorvastatin ortho- (o-) hydroxy (active) metabolite, reference compound] | separate and potent antioxidant effects | – | – | – | –
CC/C=C\C/C=C\C/C=C\C/C=C\C/C=C\C/C=C\CCC(=O)O [DHA, cis-4,7,10,13,16,19-docosahexaenoic acid, reference compound] | – | induced formation of membrane cholesterol domains | reduced DPH apparent rotational correlation time | – | –
O=C(O)c1cccnc1 [niacin, nicotinic acid] | – | – | – | significant reductions in d-space | disproportionately greater
Cc1ccc(C)c(OCCCC(C)(C)C(=O)O)c1 [gemfibrozil] | – | – | – | significant reductions in d-space | disproportionately greater
